The results in this text go back to patent US5914325A, “Steroids with radical-attracting aromatic substituents, process for the production thereof and pharmaceutical compounds containing the said substances” (Jenapharm GmbH, priority 1993, dated 1999).

In one assay the test system is lipid peroxidation. In words: Inhibition of lipid peroxidation in vitro, thiobarbituric acid test (synaptosomal membrane fraction, Fenton's reagent). To be noted: read-out: Lipid peroxidation inhibition [IC50], iron(II) chloride/hydrogen peroxide, 30 min at 37° C.
The test system of another assay is LDL oxidation. The experiment in a line: Inhibition of LDL oxidation in vitro, method of Esterbauer et al (1988), CuSO4, 234 nm. The format is biochemical. The settings on record: 1 μM, LDL isolated from human whole blood, room temperature, at least 8 h. How it is done: The measurement of in vitro inhibition of LDL oxidation was performed in accordance with Esterbauer et al (1988): Effect of peroxidative conditions on human plasma low density lipoproteins. In: Eicosanoids, lipid peroxidation and cancer (ed. Nigam et al), pages 203-214, Springer-Verlag,Berlin, Heidelberg, New York.
The values listed in Table 2 for inhibition of LDL oxidation represent examples for cardiovascular activities.
Testing of the substances for inhibitory action with regard to LDL oxidation, by the method of Esterbauer et al (1988), was carried out as follows:
The reaction mixture is incubated at room temperature over a period of at least 8 h and followed spectral photometrically (the absorption maximum of the oxidized LDL is at 234 nm). In accordance with the extinction changes, recorded at the measurement wavelength of 234 nm, in the presence or absence of test substances or in comparison of the native and the oxidized LDL, definitive statements on the influence on the oxidized LDL by the action of the test substance.
Dosage-action analysis of the test substances.

For the compound `C[C@]12CC[C@H]3[C@@H](CCC4=CC(=O)CC[C@@H]43)[C@@H]1CC[C@@]2(O)Cc1ccc(O)cc1` [17α-4'-Hydroxyphenylmethyl-17-hydroxyestr-4-ene-3-one], the IC50 with lipid peroxidation came out at 50 µM.

On to `C[C@]12CC[C@@H]3c4ccc(O)cc4CC[C@H]3[C@@H]1CC[C@@H]2O` [17β-Estradiol, reference compound], for which the “LDL oxidation inhibition (prolongation of lag phase in min)” value (from here on “LDL oxidation inhibition”) with LDL oxidation was 40 min. Also, in the assay with lipid peroxidation, the IC50 was determined as 12.4 µM.

With `Cc1cc(C2=C[C@@H]3[C@H](CC[C@]4(C)[C@@H](O)CC[C@@H]34)c3ccc(O)cc32)cc(C)c1O` [6-2',6'-Dimethyl-4'-hydroxyphenylestra-1,3,5(10),6-tetraene-3,17β-diol], the “LDL oxidation inhibition” value in the assay with LDL oxidation is reported as 180 min. In addition, in the assay on lipid peroxidation, the IC50 stood at 0.95 µM.

Consider `CN(C)c1ccc(C[C@]2(O)CC[C@H]3[C@@H]4CCc5cc(O)ccc5C4=CC[C@@]32C)cc1` [17α-4'-N,N-Dimethylaminophenylmethylestra-1,3,5(10),9(11)-tetraene-3,17-diol], for which, in the assay with lipid peroxidation, the IC50 worked out at 2.1 µM.

As for `CN(C)c1ccc(C[C@]2(O)CC[C@H]3[C@@H]4CCC5=CC(=O)CC[C@@H]5[C@H]4CC[C@@]32C)cc1` [17α-4'-N,N-Dimethylaminophenylmethyl-17-hydroxyestr-4-ene-3-one], the IC50 with lipid peroxidation is greater than 10 µM.

For `CN(C)c1ccc(C2=CC[C@H]3[C@@H]4CCc5cc(O)ccc5[C@H]4CC[C@]23C)cc1` [17-4'-N,N-Dimethylaminophenylestra-1,3,5(10),16-tetraene-3-ol], in the assay with lipid peroxidation, the IC50 was 4.5 µM.

With `Cc1c(C)c2c(c(C)c1O)CCC(C)(CN1CCN(c3cc(N4CCCC4)nc(N4CCCC4)n3)CC1)O2` (stereo not drawn) [Example U-78517F, reference compound], in the assay with LDL oxidation, the “LDL oxidation inhibition” value was 20 min.

`COc1ccc2c(c1)CC[C@@H]1[C@@H]2CC[C@@]2(C)[C@H]1CC[C@@]2(O)CSc1ccc(O)cc1` [17α-4'-Hydroxyphenylmercaptomethyl-3-methoxyestra-1,3,5(10)-triene-17-ol]: the IC50 in the assay on lipid peroxidation worked out at 4.32 µM.

With `COc1ccc2c(c1)CCC1C2CCC2(C)C1CCC2(O)C[Se]c1c(C)cc(O)cc1C` (stereo not drawn) [17α-2',6'-Dimethyl-4'-hydroxyphenylselenomethyl-3-methoxyestra-1,3,5(10)-triene-17-ol], the IC50 in the assay with lipid peroxidation worked out at 1.97 µM.

Turning to `C[C@]12CC[C@H]3[C@@H](CCC4=CC(=O)CC[C@@H]43)[C@@H]1CC[C@@]2(O)CSc1ccc(O)cc1` [17α-4'-Hydroxyphenylmercaptomethyl-17-hydroxyestr-4-ene-3-one], the IC50 in the assay on lipid peroxidation worked out at 8.6 µM.

Take `C[C@]12CC[C@@H]3c4ccc(O)cc4CC[C@H]3[C@@H]1CC[C@@]2(O)CSc1ccc(O)cc1` [17α-4'-Hydroxyphenylmercaptomethylestra-1,3,5(10)-triene-3,17-diol]: the “LDL oxidation inhibition” value in the assay on LDL oxidation was found to be 120 min. Further, the IC50 with lipid peroxidation worked out at 2.2 µM.

For the compound `COc1ccc2c(c1)CC[C@@H]1[C@@H]2CC[C@@]2(C)[C@H]1CC[C@@]2(O)Cc1cc(C)c(O)c(C)c1`, in the assay with lipid peroxidation, the IC50 turned out to be 2.34 µM.

On to `COc1ccc2c(c1)CCC1C2CCC2(C)C1CCC2(O)C[Se]c1c(C(C)(C)C)cc(O)cc1C(C)(C)C` (stereo not drawn) [17α2',6'-Di-tert.-butyl-4'-hydroxyphenylselenomethyl-3-methoxyestra-1,3,5(10)-triene-17-ol], for which the IC50 with lipid peroxidation was found to be 4.97 µM.

Consider `COc1ccc2c(c1)CCC1C2CCC2(C)C1CCC2(O)Cc1c(C(C)(C)C)cc(O)cc1C(C)(C)C` (stereo not drawn) [17α-2',6'-Di-tert.-butyl-4'-hydroxyphenylmethyl-3-methoxyestra-1,3,5(10)-triene-17-ol], for which the IC50 in the assay on lipid peroxidation is 12.6 µM.

Consider `CN(C)c1ccc([C@]2(O)CC[C@H]3[C@@H]4CCc5cc(O)ccc5[C@H]4CC[C@@]32C)cc1` [17α-4'-N,N-Dimethylaminophenylestra-1,3,5(10)-triene-3,17-diol], for which, in the assay on LDL oxidation, the “LDL oxidation inhibition” value is recorded as 170 min. For the same compound, the IC50 in the assay with lipid peroxidation was 0.95 µM.

With `Cc1cc(O)cc(C)c1CC1(O)CCC2C3CCC4=CC(=O)CCC4C3CCC21C` (stereo not drawn) [17α-2',6'-Dimethyl-4'-hydroxyphenylmethyl-17-hydroxyestr-4-ene-3-one], the IC50 with lipid peroxidation was determined as 1.92 µM.

With `CC1CC(=O)CC2CCC3C(CCC4(C)C3CCC4(O)CSc3ccc(O)cc3)C12C` (stereo not drawn) [17α-4'-Hydroxyphenylmercaptomethyl-17-hydroxy-1α-methyl-5α-androstan-3-one], the IC50 in the assay with lipid peroxidation came out at 3.82 µM.

Turning to `CN(C)c1ccc(C2=C[C@@H]3[C@H](CC[C@]4(C)[C@@H](O)CC[C@@H]34)c3ccc(O)cc32)cc1` [6-4'-N,N-Dimethylaminophenylestra-1,3,5(10),6-tetraene-3,17β-diol], the IC50 with lipid peroxidation was 2.75 µM.

Turning to `COC1(OC)CCC2=C(CC[C@@H]3[C@@H]2CC[C@@]2(C)[C@H]3CC[C@@]2(O)CSc2ccc(O)cc2)C1` [17α-4'-Hydroxyphenylmercaptomethyl-3,3-dimethoxyestr-5(10)-ene-17-ol], in the assay on lipid peroxidation, the IC50 came out at 1.46 µM.

For the compound `C[C@]12CC=C3c4ccc(O)cc4CC[C@H]3[C@@H]1CC[C@@]2(O)CSc1ccc(O)cc1` [17α-4'-Hydroxyphenylmercaptomethylestra-1,3,5(10),9(11)-tetraene-3,17-diol], the “LDL oxidation inhibition” value in the assay with LDL oxidation worked out at 270 min. Moreover, the IC50 in the assay with lipid peroxidation was 0.44 µM.

Consider `C[C@]12CCC(=O)C=C1CC[C@@H]1[C@@H]2CC[C@@]2(C)[C@H]1CC[C@@]2(O)CSc1ccc(O)cc1` [17α-4'-Hydroxyphenylmercaptomethyl-17-hydroxyandrost-4-ene-3-one], for which the IC50 in the assay with lipid peroxidation came to 10.9 µM.

For Vitamin E [reference compound], the IC50 with lipid peroxidation worked out at 132 µM.

Take `C[C@]12CC[C@@H]3c4ccc(O)cc4CC[C@H]3[C@@H]1C[C@@H](O)[C@@H]2O` [Estriol, reference compound]: the “LDL oxidation inhibition” value with LDL oxidation is listed as 20 min. In addition, in the assay with lipid peroxidation, the IC50 came to 22.5 µM.

As for `C[C@]12CCC(=O)C[C@@H]1CC[C@@H]1[C@@H]2CC[C@@]2(C)[C@H]1CC[C@@]2(O)CSc1ccc(O)cc1` [17α-4'-Hydroxyphenylmercaptomethyl-17-hydroxy-5α-androstan-3-one], the IC50 with lipid peroxidation worked out at 4.75 µM.

Turning to `COc1ccc2c(c1)CC[C@@H]1[C@@H]2CC[C@@]2(C)[C@H]1CC[C@@]2(O)Cc1ccc(N(C)C)cc1` [17α-4'-N,N-Dimethylaminophenylmethyl-3-methoxyestra-1,3,5(10)-triene-17-ol], the “LDL oxidation inhibition” value with LDL oxidation was determined as 195 min. For the same compound, in the assay on lipid peroxidation, the IC50 came out at 1.64 µM.

On to `CN(C)c1ccc(C[C@]2(O)CC[C@H]3[C@@H]4CCc5cc(O)ccc5[C@H]4CC[C@@]32C)cc1` [17α-4'-N,N-Dimethylaminophenylmethylestra-1,3,5(10)-triene-3,17-diol], for which the IC50 with lipid peroxidation was 3.53 µM.

As to `C[C@]12CC[C@H]3[C@@H](C[C@@H](c4ccc(O)cc4)C4=CC(=O)CC[C@@]43C)[C@@H]1CC[C@@H]2O` [6β-4'-Hydroxyphenyl-17β-hydroxyandrost-4-ene-3-one], the IC50 in the assay with lipid peroxidation was 60 µM.

For `COC1(OC)CCC2=C(CC[C@@H]3[C@@H]2CC[C@@]2(C)[C@H]3CC[C@@]2(O)Cc2ccc(N(C)C)cc2)C1` [17α-4'-N,N-Dimethylphenylmethyl-3,3-dimethoxyestr-5(10)-ene-17-ol], in the assay with lipid peroxidation, the IC50 worked out at 5.5 µM.

`C[C@]12CC=C3c4ccc(O)cc4CC[C@H]3[C@@H]1CC[C@@]2(O)Cc1ccc(O)cc1` [17α-4'-Hydroxyphenylmethylestra-1,3,5(10),9(11)-tetraene-3,17-diol]: the “LDL oxidation inhibition” value in the assay on LDL oxidation is listed as 230 min. Moreover, the IC50 in the assay on lipid peroxidation turned out to be 0.32 µM.

As for `COc1ccc2c(c1)CC[C@@H]1[C@@H]2CC[C@@]2(C)[C@H]1CC[C@@]2(O)Cc1ccc(O)cc1` [17α-4'-Hydroxyphenylmethyl-3-methoxyestra-1,3,5(10)-triene-17-ol], the IC50 with lipid peroxidation was determined as 2.64 µM.

In the case of `C[C@]12CC[C@@H]3c4ccc(O)cc4CC[C@H]3[C@@H]1CC[C@@]2(O)Cc1ccc(O)cc1` [17α-4'-Hydroxyphenylmethylestra-1,3,5(10)-triene-3,17-diol], the “LDL oxidation inhibition” value with LDL oxidation is recorded as 125 min. For the same compound, the IC50 in the assay with lipid peroxidation is 4.03 µM.

For `COc1ccc2c(c1)CC[C@@H]1[C@@H]2CC[C@@]2(C)[C@H]1CC[C@@]2(O)C[Se]c1ccc(N(C)C)cc1` [17α-4'-N,N-Dimethylaminophenylselenomethyl-3-methoxyestra-1,3,5(10)-triene-17-ol], the IC50 with lipid peroxidation was found to be 1.33 µM.

For `C[C@]12CC[C@H]3[C@@H](CCC4=CC(=O)CC[C@@H]43)[C@@H]1CC[C@@]2(O)COc1ccc(O)cc1` [17α-4'-Hydroxyphenoxymethyl-17-hydroxyestr-4-ene-3-one], the IC50 with lipid peroxidation came out at 10.1 µM.
